According to the NIST ThermoML archive (doi:10.1016/j.fluid.2008.06.004):
Values joined by “and” are separate entries in the source; they are usually repeats but may differ in a detail not shown here. Equal values may be shown once.

Columns and labels:
[1] = refractive index (Na D-line) (dimensionless); conditions: 298.15 K; 101.33 kPa; Liquid; Standard Abbe refractometry
[2] = Liquid; for mass density: 298.15 K, 101.33 kPa

CCC(C)=O [butanone]
Conditions | mass density [kg/m3] | refractive index
[1] | – | 1.37614
[2] | 799.62 | –

[2], Ebulliometric method (Recirculating still)
Conditions | vapor or sublimation pressure
308.22 K | 18.73 kPa
309.55 K | 20 kPa
310.48 K | 20.76 kPa
312.56 K | 22.74 kPa
313.8 K | 24.01 kPa
316.39 K | 26.73 kPa
318.16 K | 28.71 kPa
319.63 K | 30.72 kPa
321.2 K | 32.71 kPa
324.08 K | 36.72 kPa
326.86 K | 40.72 kPa
329.31 K | 44.73 kPa
331.49 K | 48.73 kPa
333.61 K | 52.73 kPa
335.64 K | 56.74 kPa
337.53 K | 60.73 kPa
339.37 K | 64.72 kPa
341.07 K | 68.73 kPa
342.7 K | 72.72 kPa
344.29 K | 76.74 kPa
345.74 K | 80.72 kPa
347.19 K | 84.73 kPa
348.59 K | 88.73 kPa
349.95 K | 92.74 kPa
350.49 K | 94.41 kPa
351.4 K | 97.29 kPa
352.68 K | 101.32 kPa and 101.3 kPa
354.04 K | 105.95 kPa
355.29 K | 110.24 kPa
356.39 K | 114.07 kPa
357.91 K | 119.51 kPa
359.12 K | 124.08 kPa
360.32 K | 128.72 kPa
361.22 K | 132.46 kPa
362.08 K | 135.91 kPa

CCO [ethanol]
Conditions | mass density [kg/m3] | refractive index
[1] | – | 1.35939
[2] | 786.47 | –

[2], Ebulliometric method (Recirculating still)
Conditions | vapor or sublimation pressure [kPa]
315.41 K | 20
351.46 K | 101.3

CCCO [propan-1-ol]
Conditions | mass density [kg/m3] | refractive index
[1] | – | 1.38305
[2] | 799.44 | –

[2]
Conditions | vapor or sublimation pressure [kPa]
332.67 K | 20
370.21 K | 101.3

CC(C)O [propan-2-ol]
Conditions | mass density [kg/m3] | refractive index
[1] | – | 1.37497
[2] | 780.75 | –

[2], Ebulliometric method (Recirculating still)
Conditions | vapor or sublimation pressure [kPa]
319.8 K | 20
355.4 K | 101.3
